pIC50: −log10 of the molar value.
Biological target: T1, Androgen receptor (Homo sapiens, UniProt P10275)
T1 sequence (P10275 whole entry): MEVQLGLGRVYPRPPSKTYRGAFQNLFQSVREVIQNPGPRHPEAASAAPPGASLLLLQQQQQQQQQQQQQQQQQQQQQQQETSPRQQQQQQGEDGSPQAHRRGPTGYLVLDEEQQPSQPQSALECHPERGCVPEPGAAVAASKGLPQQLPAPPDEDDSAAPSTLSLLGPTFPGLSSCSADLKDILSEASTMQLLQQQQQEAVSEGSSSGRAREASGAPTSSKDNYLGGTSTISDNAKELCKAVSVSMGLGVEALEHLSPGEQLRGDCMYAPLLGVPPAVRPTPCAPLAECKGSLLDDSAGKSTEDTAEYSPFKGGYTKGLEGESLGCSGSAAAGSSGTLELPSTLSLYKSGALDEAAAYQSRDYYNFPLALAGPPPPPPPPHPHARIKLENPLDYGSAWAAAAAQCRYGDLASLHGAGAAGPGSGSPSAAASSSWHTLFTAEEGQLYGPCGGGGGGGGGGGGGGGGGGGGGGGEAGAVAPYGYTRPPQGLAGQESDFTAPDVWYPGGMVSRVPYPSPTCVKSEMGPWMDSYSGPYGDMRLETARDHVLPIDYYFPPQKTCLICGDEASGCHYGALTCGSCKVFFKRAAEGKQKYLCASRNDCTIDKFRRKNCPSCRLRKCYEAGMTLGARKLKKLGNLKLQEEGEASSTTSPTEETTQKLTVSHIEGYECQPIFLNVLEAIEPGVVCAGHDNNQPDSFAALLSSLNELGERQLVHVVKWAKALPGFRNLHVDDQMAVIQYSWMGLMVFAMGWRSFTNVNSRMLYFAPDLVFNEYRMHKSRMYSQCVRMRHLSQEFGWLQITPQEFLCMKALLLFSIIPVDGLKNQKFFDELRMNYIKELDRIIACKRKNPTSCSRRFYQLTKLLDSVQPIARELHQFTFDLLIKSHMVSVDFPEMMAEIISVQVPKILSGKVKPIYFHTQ
Assay: biochemical

pIC50	Structure (SMILES)
7.05	COc1cccc2c1C(=O)c1c(O)c3c(c(O)c1C2=O)C[C@@](O)(C(=O)CO)C[C@@H]3OC1C[C@H](NCNC(=O)c2cc(COCC#CCN3C(=O)N(c4ccc(C#N)c(C(F)(F)F)c4)C(=O)C3(C)C)ccc2O)[C@H](O)[C@H](C)O1 (stereo partly drawn)
6.46	CC1(C)C(=O)N(c2ccc(C#N)c(C(F)(F)F)c2)C(=O)N1CCOCCN1CCN(CCOCc2ccc(O)c(C(N)=O)c2)CC1

Structure (SMILES)	pIC50
CC1(C)C(=O)N(c2ccc(C#N)c(C(F)(F)F)c2)C(=O)N1CCCCN1CCN(CCOCc2ccc(O)c(C(N)=O)c2)CC1	< 6.00

Reference: ChEMBL document CHEMBL1145911, “Rational design and synthesis of androgen receptor-targeted nonsteroidal anti-androgen ligands for the tumor-specific delivery of a doxorubicin-formaldehyde conjugate” (J Med Chem, 2003)
